Data: US9469631B2 (Boehringer Ingelheim International GmbH, priority 2012, dated 2016)

Biological target: human GPR119 (Homo sapiens (Human), UniProt Q8TDV5)
Test: AlphaScreen cAMP assay in MIN6 cells stably transfected with human GPR119
Type: cell-based
Conditions: Min-6/hGPR119 cells, 45 min incubation at room temperature
Method: The compounds of formula I according to the invention modulate the activity of the G-protein-coupled receptor GPR119. The effect of the compounds on the activation of GPR119 and on the stimulation of intracellular cAMP concentration is determined using the AlphaScreen cAMP Assay Kit (Cat. No. #6760625R) made by PerkinElmer.
MIN6 cells [Miyazaki J et al. Endocrinology. 1990 July; 127(1):126-32] are stably transfected with an expression vector for human GPR119 cDNA (Acc. No. NP_848566). Min-6/hGPR119 cells are cultured in DMEM, 10% FBS, 50 μM β-mercaptoethanol, 0.3 mg/mL Geniticin, 2 mM GlutaMAX at 37° C. 5% CO2. For the assay, the cells are seeded in Optiplates (white, 384-well, 160W-barcoded, TC, sterile with lid, Cat. No. #6007688 (Perkin Elmer); 10000 cells/well; 50 μl). The plates covered with lids are then incubated for 24 hours at 37° C./5% CO2. After the medium is aspirated from the wells completely, 10 μl of the test compound are added, the compounds are diluted using stimulating buffer (140 mM NaCl, 3.6 mM KCl, 0.5 mM NaH2PO4, 0.5 mM MgSO4, 1.5 mM CaCl2, 10 mM Hepes, 5 mM NaHCO3; pH 7.4. 0.5 mM IBMX and 0.1% BSA, the final DMSO concentration is 1%). After 45 minutes incubation at room temperature (approx. 20° C.), the cAMP concentrations are determined using the AlphaScreen cAMP Assay Kit (Cat. No. #6760625R from PerkinElmer).

Sequence of human GPR119 (Q8TDV5 whole entry): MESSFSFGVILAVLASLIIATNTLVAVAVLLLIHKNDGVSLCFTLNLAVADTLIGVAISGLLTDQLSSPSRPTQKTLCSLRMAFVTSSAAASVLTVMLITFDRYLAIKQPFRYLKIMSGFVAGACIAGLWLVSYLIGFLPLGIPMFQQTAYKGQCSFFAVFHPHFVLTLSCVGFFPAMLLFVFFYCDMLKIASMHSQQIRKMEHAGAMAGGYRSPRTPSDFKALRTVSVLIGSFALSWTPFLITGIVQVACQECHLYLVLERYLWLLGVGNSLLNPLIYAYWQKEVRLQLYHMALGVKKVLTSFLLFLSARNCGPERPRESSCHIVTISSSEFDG

Structure (SMILES)	EC50
CC(C)(C)OC(=O)N1CCC(N(C(=O)c2ccc(-n3cccn3)cc2)C2CC2)CC1 [Example 71, 4-[Cyclopropyl-(4-pyrazol-1-yl-benzoyl)-amino]-piperidine-1-carboxylic acid tert-butyl ester]	0.637 µM
CN(C)C(=O)Nc1nc(-c2ccc(C(=O)N(C3CC3)C3CCN(C(=O)OC(C)(C)C)CC3)cc2)ns1 [Example 72, 4-(Cyclopropyl-{4-[5-(3,3-dimethyl-ureido)-[1,2,4]thiadiazol-3-yl]-benzoyl}-amino)-piperidine-1-carboxylic acid tert-butyl ester]	1.17 µM
CNC(=O)Nc1nc(-c2ccc(C(=O)N(C3CC3)C3CCN(C(=O)OC(C)(C)C)CC3)cc2)ns1 [Example 73, 4-(Cyclopropyl-{4-[5-(3-methyl-ureido)-[1,2,4]thiadiazol-3-yl]-benzoyl}-amino)-piperidine-1-carboxylic acid tert-butyl ester]	0.5 µM
CC(=O)Nc1nc(-c2ccc(C(=O)N(C3CC3)C3CCN(C(=O)OC(C)(C)C)CC3)cc2)ns1 [Example 74, 4-{[4-(5-Acetylamino-[1,2,4]thiadiazol-3-yl)-benzoyl]-cyclopropyl-amino}-piperidine-1-carboxylic acid tert-butyl ester]	0.886 µM
CC(C)(C)OC(=O)N1CCC(N(C(=O)c2ccc(-c3cccnc3)cc2)C2CC2)CC1 [Example 75, 4-[Cyclopropyl-(4-pyridin-3-yl-benzoyl)-amino]-piperidine-1-carboxylic acid tert-butyl ester]	0.651 µM
CN(C)C(=O)Nc1nnc(-c2ccc(C(=O)N(C3CC3)C3CCN(C(=O)OC(C)(C)C)CC3)cc2)s1 [Example 76, 4-(Cyclopropyl-{4-[5-(3,3-dimethyl-ureido)-[1,3,4]thiadiazol-2-yl]-benzoyl}-amino)-piperidine-1-carboxylic acid tert-butyl ester]	0.233 µM
CC(=O)Nc1nnc(-c2ccc(C(=O)N(C3CC3)C3CCN(C(=O)OC(C)(C)C)CC3)cc2)s1 [Example 77, 4-{[4-(5-Acetylamino-[1,3,4]thiadiazol-2-yl)-benzoyl]-cyclopropyl-amino}-piperidine-1-carboxylic acid tert-butyl ester]	0.394 µM
CCOC(=O)c1cnn(-c2ccc(C(=O)N(C3CC3)C3CCN(C(=O)OC(C)(C)C)CC3)cc2)c1C [Example 78, 4-{Cyclopropyl-[4-(4-ethoxycarbonyl-5-methyl-pyrazol-1-yl)-benzoyl]-amino}-piperidine-1-carboxylic acid tert-butyl ester]	0.075 µM
CCOC(=O)c1c(C)nn(-c2ccc(C(=O)N(C3CC3)C3CCN(C(=O)OC(C)(C)C)CC3)cc2)c1C [Example 79, 4-{Cyclopropyl-[4-(4-ethoxycarbonyl-3,5-dimethyl-pyrazol-1-yl)-benzoyl]-amino}-piperidine-1-carboxylic acid tert-butyl ester]	1.01 µM
CC(C)(C)OC(=O)N1CCC(N(C(=O)c2ccc(-c3ccsc3)cc2)C2CC2)CC1 [Example 80, 4-[Cyclopropyl-(4-thiophen-3-yl-benzoyl)-amino]-piperidine-1-carboxylic acid tert-butyl ester]	0.345 µM
CC(C)(C)OC(=O)N1CCC(N(C(=O)c2ccc(-n3cnc(-c4ccccc4)c3)c(Cl)c2)C2CC2)CC1 [Example 81, 4-{[3-Chloro-4-(4-phenyl-imidazol-1-yl)-benzoyl]-cyclopropyl-amino}-piperidine-1-carboxylic acid tert-butyl ester]	0.148 µM
CNC(=O)Nc1nnc(-c2ccc(C(=O)N(C3CC3)C3CCN(C(=O)OC(C)(C)C)CC3)cc2)s1 [Example 82, 4-(Cyclopropyl-{4-[5-(3-methyl-ureido)-[1,3,4]thiadiazol-2-yl]-benzoyl}-amino)-piperidine-1-carboxylic acid tert-butyl ester]	0.402 µM
Cc1c(-c2ccccc2)ncn1-c1ccc(C(=O)N(C2CC2)C2CCN(C(=O)OC(C)(C)C)CC2)cc1 [Example 83, 4-{Cyclopropyl-[4-(5-methyl-4-phenyl-imidazol-1-yl)-benzoyl]-amino}-piperidine-1-carboxylic acid tert-butyl ester]	0.291 µM
Cc1nc(-c2ccccc2)cn1-c1ccc(C(=O)N(C2CC2)C2CCN(C(=O)OC(C)(C)C)CC2)cc1 [Example 84, 4-{Cyclopropyl-[4-(2-methyl-4-phenyl-imidazol-1-yl)-benzoyl]-amino}-piperidine-1-carboxylic acid tert-butyl ester]	0.096 µM

Next, values leading:

EC50	Structure (SMILES)
0.401 µM	COc1ccc(-c2ccc(C(=O)N(C3CC3)C3CCN(C(=O)OC(C)(C)C)CC3)cc2)cc1 [Example 86, 4-[Cyclopropyl-(4′-methoxy-biphenyl-4-carbonyl)-amino]-piperidine-1-carboxylic acid tert-butyl ester]
0.256 µM	CCOc1ccc(-c2ccc(C(=O)N(C3CC3)C3CCN(C(=O)OC(C)(C)C)CC3)cc2)cc1 [Example 87, 4-[Cyclopropyl-(4′-ethoxy-biphenyl-4-carbonyl)-amino]-piperidine-1-carboxylic acid tert-butyl ester]
0.203 µM	CC(C)(C)OC(=O)N1CCC(N(C(=O)c2ccc(-c3ccc(OC(F)(F)F)cc3)cc2)C2CC2)CC1 [Example 88, 4-[Cyclopropyl-(4′-trifluoromethoxy-biphenyl-4-carbonyl)-amino]-piperidine-1-carboxylic acid tert-butyl ester]
0.024 µM	CC(C)(C)OC(=O)N1CCC(N(C(=O)c2ccc(-c3ccc(C#N)s3)cc2)C2CC2)CC1 [Example 89, 4-{[4-(5-Cyano-thiophen-2-yl)-benzoyl]-cyclopropyl-amino}-piperidine-1-carboxylic acid tert-butyl ester]
0.228 µM	CC(C)(C)OC(=O)N1CCC(N(C(=O)c2ccc(-c3ccoc3)cc2)C2CC2)CC1 [Example 90, 4-[Cyclopropyl-(4-furan-3-yl-benzoyl)-amino]-piperidine-1-carboxylic acid tert-butyl ester]
0.086 µM	CC(C)(C)OC(=O)N1CCC(N(C(=O)c2ccc(-c3ccc(CC#N)cc3)cc2)C2CC2)CC1 [Example 91, 4-[(4′-Cyanomethyl-biphenyl-4-carbonyl)-cyclopropyl-amino]-piperidine-1-carboxylic acid tert-butyl ester]
0.079 µM	CC(C)(C)OC(=O)N1CCC(N(C(=O)c2ccc(-c3ccc(NS(C)(=O)=O)cc3)cc2)C2CC2)CC1 [Example 92, 4-[Cyclopropyl-(4′-methanesulfonylamino-biphenyl-4-carbonyl)-amino]-piperidine-1-carboxylic acid tert-butyl ester]
0.177 µM	CC(C)(C)OC(=O)N1CCC(N(C(=O)c2ccc(-c3ccc(S(C)(=O)=O)cc3)cc2)C2CC2)CC1 [Example 93, 4-[Cyclopropyl-(4′-methanesulfonyl-biphenyl-4-carbonyl)-amino]-piperidine-1-carboxylic acid tert-butyl ester]
0.317 µM	CC(C)(C)OC(=O)N1CCC(N(C(=O)c2ccc(-c3ccccc3C#N)cc2)C2CC2)CC1 [Example 94, 4-[(2′-Cyano-biphenyl-4-carbonyl)-cyclopropyl-amino]-piperidine-1-carboxylic acid tert-butyl ester]
0.085 µM	Cc1noc(C)c1-c1ccc(C(=O)N(C2CC2)C2CCN(C(=O)OC(C)(C)C)CC2)cc1 [Example 95, 4-{Cyclopropyl-[4-(3,5-dimethyl-isoxazol-4-yl)-benzoyl]-amino}-piperidine-1-carboxylic acid tert-butyl ester]
